Results published in patent publication US12371434B2, “MLL1 inhibitors and anti-cancer agents” (NOVARTIS AG, priority 2020, dated 2025).

Key:
H3K4me3 in MV4-11 cells = experiment: MV4-11 H3K4Me3 cellular ELISA assay; assay type: cell-based; settings: Homo sapiens, 48 hours, H3K4me3 signal normalized to total H3
Experimental: MV4-11H3K4Me3 Cellular ELISA Assay
MV4-11 (ATCC® CRL-9591™) was cultured with RPMI1640 medium (Thermo Fisher Scientific, cat #11875) supplemented with 10% FBS (Thermo Fisher Scientific, cat #10099141) and 50 U/ml Penicillin-Streptomycin (Thermo Fisher Scientific, cat #10378016) in humidified incubator at 37° C., 5% CO2.
200 nL compounds dissolved in DMSO were serially diluted at 1:3 ratio for 12 points starting from 10 mM and dispensed into each wells of cell culture plates (PDL-coated ViewPlate-384 Black, FTC, PerkinElmer, #6007710). 3,750 MV4-11 cells in 40 μL culture medium were seeded into each well and treated with desired concentration for 48 hours. After treatment, wash cells with cold phosphate based buffer (PBS, pH 7.4) and aspirate the remaining PBS buffer. Crude histone lysate was extracted by 40 μL 0.5M HCl for 1 hour in 4° C. following neutralization by adding 32 μL neutralization buffer (0.5M Sodium phosphate dibasic, pH˜12.5, 1.25 mM Dithiothreitol, Promega #V3151, Protease Inhibitor Cocktail, Sigma #8340) for each well. 5 μL and 20 μL of histone lysate was loaded to ELISA plate (384 Well Plates, PE HB, White, 6005620) for detection of total H3 and H3K4me3, respectively. Shake the plates gently in 4° C. for overnight. After histone binding, plates were washed with 80 μL PBS/T (PBS with 0.05% Tween-20) and blocked with 50 μL 3% BSA diluted in PBS/T per well for 1 hour. Incubate wells with primary antibody for 1 hour at room temperature using anti-H3K4me3 (CST #9727) and anti-total H3 (CST #9715) diluted 1:2000 in 3% BSA. Plates were then washed with PBS/T for 3 times and incubated with horseradish peroxidase (HRP) conjugated secondary antibody (CST #7074, 1:5000) for 1 hour at room temperature. The abundance of H3K4me3 and total H3 were measured by ECL substrates chemiluminesce (Pierce, #34080) on a plate reader (PerkinElmer EnVison 2104 Mutilable Reader). Percentage inhibition was calculated against DMSO control after normalization of H3K4me3 signal to H3 signal for individual samples. The data were then fit to a dose response curve using GraphPad Prism for IC50 calculation.

[1] = molecular target: wild type MLL1 four-member complex (MLL1-4C) (Homo sapiens, UniProt Q03164); experiment: MLL1 LC-MS assay; assay type: biochemical; settings: 30 nM MLL1-4C, 2.5 μM SAM, 10 μM H3K4me0; SAH production by LC-MS/MS; read-out: MLL1 LCMS
Experimental: The compounds of the present disclosure were serially and separately diluted 3-fold in DMSO to obtain a total of eight or twelve concentrations. Then the test compounds at each concentration (120 nL of each) were transferred by Mosquito into white Proxiplate plus 384-well microplate (PerkinElmer). Solutions (6 μL) of 60 nM wild type MLL1 four-member complex (MLL1-4C) and 5 μM SAM in the reaction buffer (20 mM Tris-HCl, pH8.0, 0.01% Tween 20, 1 mM DTT, 10 mM MgCl2, 0.01% BSA) were added to the wells that were then incubated with the test compound for 20 min. A 6 μL solution of 20 μM of the peptide substrate H3K4me0 (histone H3[1-21]-Biotin) in the reaction buffer was added to initiate each reaction. The final components in the reaction solution include 30 nM MLL1-4C, 2.5 μM SAM, and 10 μM H3K4me0 with varying concentration of the compounds. A positive control consisted of 30 nM MLL1-4C, 2.5 μM SAM, and 10 μM substrate in the absence of the test compound, and a negative control consisted of 2.5 μM SAM, and 10 μM substrate only. Each reaction was incubated at rt for 120 min, then stopped by addition of 3 μL per of quench solution (2.5% TFA with 320 nM d4-SAH). The reaction mixture was centrifuged (Eppendorf centrifuge 5810, Rotor A-4-62) for 2 min at 2000 rmp. The SAH production from the enzymatic assays were monitored by LC-MS/MS on an API 4000 triple quadrupole mass spec with TurboIon Spray (Applied Biosystem) coupled with Prominenece UFLC(Shimazu). The level of SAH production were then normalized based on the values coming from the positive and negative controls to give percent enzyme activities. The data were then fit to a dose response equation using the program Helios (Novartis) to get the IC50 values of the test compounds.

[2] = molecular target: wild type MLL1 five-member complex (MLL1-5C) (Homo sapiens, UniProt Q03164); experiment: MLL1 Flashplate assay; assay type: biochemical; settings: 2.5 nM MLL1-5C, 0.5 μM 3H-SAM, 1 μM H3K4me0; read-out: MLL1 flash plate
Experimental: MLL1 Flashplate Assay To assess the compound potency in MLL1 Flashplate assay, compounds were serially diluted 3-fold in DMSO to obtain a total of twelve concentrations. Then the test compounds at each concentration (250 nL of each) were transferred by Mosquito into Corning #3675 384-well plate. Solutions (15 μL) of 4.2 nM wild type MLL1 five-member complex (MLL1-5C) in the assay buffer (20 mM Tris-HCl, pH8.0, 0.01% Tween 20, 1 mM DTT, 0.01% BSA) were added to the wells. A 10 μL solution of 2.5 μM of the peptide substrate H3K4me0 (histone H3[1-21]-Biotin) and 1.25 μM ^3H-SAM in the reaction buffer was then added to initiate each reaction. The final components in the reaction solution include 2.5 nM MLL1-5C, 0.5 μM ^3H-SAM, and 1 μM H3K4me0 with varying concentration of the compounds. A positive control consisted of 2.5 nM MLL1-5C, 0.5 μM ^3H-SAM, and 1 μM substrate in the absence of the test compound, and a negative control consisted of 0.5 μM ^3H-SAM, and 1 μM substrate only. Each reaction was incubated at rt for 90 min, then stopped by addition of 5 μL per of quench solution (0.5 mM SAM in assay buffer). 25 μL of each reaction solution was transferred to FlashPlate streptavidin 384-well microplate (PerkinElmer). After at least 1 h incubation at rt, the wells were washed three times with 0.1% Tween-20 in dH2O using the BioTek plate washer. The plates were then read in MicroBeta (PerkinElmer). The radioactive readouts were then normalized based on the values coming from the positive and negative controls to give percent enzyme activities. The data were then fit to a dose response equation using the program Helios to get the IC50 values of the test compounds.

MV4-11 cells = experiment: MV4-11 6-day cell growth CTG (CellTiter-Glo) assay; assay type: cell-based; settings: Homo sapiens, 144 h, 6 days
Experimental: MV4-11 6-Day Cell Growth CTG (CellTiter-Glo) Assay
Acute myeloid leukemia cell MV4-11 (ATCC® CRL-9591™) was cultured with RPMI 1640 medium (Thermo Fisher Scientific, cat #11875) supplemented with 10% FBS (Thermo Fisher Scientific, cat #10099141) in humidified incubator at 37° C., 5% CO2. To assess the effect of MLL1 inhibition on cell growth, the compound of the present invention was dissolved in DMSO and serially diluted at 1:3 for 12 points starting from 10 mM then 200 nL for the replicate of each dose per well was dispensed to Viewplate-384 Black (Perkin Elmer). Exponentially growing MV4-11 cells were seeded at the density of 300 cells per well in 40 μL to the plate, so the final compound working concentration starts from 50 μM. After 6 days, 40 μL CellTiter-Glo (Promega, cat #G7573) was added into the cell culture well and luminescence was read with Envision (Perkin Elmer) to determine the viable cells. The percentage inhibition was calculated against the samples treated with DMSO only and the data were used for dose response curve fitting in GraphPad Prism to get the IC50 of representative compound of present invention, which reflects the inhibition of MLL1 activity.

| Compound | IC50 (H3K4me3 in MV4-11 cells) | IC50 [1] | IC50 [2] | IC50 (MV4-11 cells) |
| --- | --- | --- | --- | --- |
| Nc1ncnc2c(Cc3c(OCCC[C@@H](N)CO)ccc(Cl)c3Cl)cnn12 [Example 44, (R)-2-amino-5-(2-((4-aminopyrazolo[1,5-a][1,3,5]triazin-8-yl)methyl)-3,4-dichlorophenoxy)pentan-1-ol] | > 3000 nM | > 100 nM | > 100 nM | – |
| COC[C@H](N)CCCOc1ccc(Cl)c(Cl)c1Cc1cnn2c(N)ncnc12 [Example 8, (R)-8-(6-((4-amino-5-methoxypentyl)oxy)-2,3-dichlorobenzyl)pyrazolo[1,5-a][1,3,5]triazin-4-amine] | > 3000 nM | > 100 nM | > 100 nM | – |
| Nc1ncnc2c(Cc3c(OCCC[C@@H](N)C(=O)NC4CC4)ccc(Cl)c3Cl)cnn12 [Example 37, (R)-2-amino-5-(2-((4-aminopyrazolo[1,5-a][1,3,5]triazin-8-yl)methyl)-3,4-dichlorophenoxy)-N-cyclopropylpentanamide] | > 3000 nM | 50 to 100 nM | > 100 nM | – |
| COC[C@H](N)COc1ccc2ccccc2c1Cn1cnc2c(N)ncnc21 [Example 19, (S)-9-((2-(2-amino-3-methoxypropoxy)naphthalen-1-yl)methyl)-9H-purin-6-amine] | 1900 to 3000 nM | 50 to 100 nM | – | < 2000 nM |
| NC(=O)[C@H](N)CCCOc1ccc(Cl)c(Cl)c1Cn1cnc2c(N)ncnc21 [Example 39, (R)-2-amino-5-(2-((6-amino-9H-purin-9-yl)methyl)-3,4-dichlorophenoxy)pentanamide] | – | 50 to 100 nM | – | < 2000 nM |
| COC(=O)C(N)CCCOc1cc(Cl)cc(Cl)c1Cn1cnc2c(N)ncc(Cl)c21 (centres unmarked) [Example 31, Methyl 2-amino-5-(2-((4-amino-7-chloro-1H-imidazo[4,5-c]pyridin-1-yl)methyl)-3,5-dichlorophenoxy)pentanoate] | – | < 50 nM | – | < 2000 nM |
| CCOC(=O)[C@H](N)CCC(C)Oc1ccc(Cl)c(Cl)c1Cn1cnc2c(N)ncnc21 (stereo partly drawn) [Example 30, Ethyl (2R)-2-amino-5-(2-((6-amino-9H-purin-9-yl)methyl)-3,4-dichlorophenoxy)hexanoate] | 1900 to 3000 nM | 50 to 100 nM | – | < 2000 nM |
| COC[C@@H](N)CCOc1ccc(Cl)c(Cl)c1Cc1cnn2c(N)ncnc12 [Example 17, (S)-8-(6-(3-amino-4-methoxybutoxy)-2,3-dichlorobenzyl)pyrazolo[1,5-a][1,3,5]triazin-4-amine] | – | > 100 nM | > 100 nM | – |
| Nc1ncnn2c(Cc3c(OCCC[C@@H](N)C(=O)NC4CC4)ccc(Cl)c3Cl)cnc12 [Example 36, (R)-2-amino-5-(2-((4-aminoimidazo[2,1-f][1,2,4]triazin-7-yl)methyl)-3,4-dichlorophenoxy)-N-cyclopropylpentanamide] | > 3000 nM | < 50 nM | < 60 nM | – |
| COC[C@H](N)CCCOc1ccc(Cl)c(Cl)c1Cc1cnc2c(N)ncnn12 [Example 5, (R)-7-(6-((4-amino-5-methoxypentyl)oxy)-2,3-dichlorobenzyl)imidazo[2,1-f][1,2,4]triazin-4-amine] | > 3000 nM | > 100 nM | > 100 nM | – |
| CC(C)COC[C@H](N)CCCOc1ccc(Cl)c(Cl)c1Cc1cnn2c(N)ncnc12 [Example 15, (R)-8-(6-((4-amino-5-isobutoxypentyl)oxy)-2,3-dichlorobenzyl)pyrazolo[1,5-a][1,3,5]triazin-4-amine] | – | > 100 nM | > 100 nM | – |
| CCOC(=O)[C@H](N)CCCOc1cc(Cl)cc(Cl)c1Cn1cnc2c(N)ncnc21 [Example 32, ethyl (R)-2-amino-5-(2-((6-amino-9H-purin-9-yl)methyl)-3,5-dichlorophenoxy)pentanoate] | – | 50 to 100 nM | – | < 2000 nM |
| COc1nc(N)c2ncn(Cc3c(Cl)cc(Cl)cc3OCCC[C@@H](N)C(=O)O)c2n1 [Example 27, (R)-2-amino-5-(2-((6-amino-2-methoxy-9H-purin-9-yl)methyl)-3,5-dichlorophenoxy)pentanoic acid] | – | 50 to 100 nM | – | > 3000 nM |
| CCOC[C@H](N)CCCOc1ccc(Cl)c(Cl)c1Cc1cnn2c(N)ncnc12 [Example 16, (R)-8-(6-((4-amino-5-ethoxypentyl)oxy)-2,3-dichlorobenzyl)pyrazolo[1,5-a][1,3,5]triazin-4-amine] | > 3000 nM | > 100 nM | > 100 nM | – |
| COC[C@H](N)CCCOc1cc2ccccc2cc1Cn1cnc2c(N)ncnc21 [Example 21, (R)-9-((3-((4-amino-5-methoxypentyl)oxy)naphthalen-2-yl)methyl)-9H-purin-6-amine] | > 3000 nM | 50 to 100 nM | > 100 nM | – |
| Nc1ncnc2c1ncn2Cc1c(OCCC[C@@H](N)Cn2cccn2)ccc(Cl)c1Cl [Example 49, (R)-9-(6-((4-amino-5-(1H-pyrazol-1-yl)pentyl)oxy)-2,3-dichlorobenzyl)-9H-purin-6-amine] | – | 50 to 100 nM | – | > 3000 nM |
